The subject of one data set is abl kinase. Put plainly: abl kinase inhibition assay. The data set is classed as biochemical.
Data set [1] relates to human tumor cell lines of the cancer screening panel. Put plainly: in vitro antiproliferation, NCI 60 cancer cell line panel (SRB). The data set is classed as cell-based. As to conditions: 48 h. The method, then:
NTW-3475 was also tested for its antiproliferative potential using cell lines from the NCI 60 cancer cell line panel.
The human tumor cell lines of the cancer screening panel are grown in RPMI 1640 medium containing 5% fetal bovine serum and 2 mM L-glutamine. For a typical screening experiment, cells are inoculated into 96 well microtiter plates in 100 μL at plating densities ranging from 5,000 to 40,000 cells/well depending on the doubling time of individual cell lines. After cell inoculation, the microtiter plates are incubated at 37° C., 5% CO2, 95% air and 100% relative humidity for 24 h prior to addition of experimental drugs. […]
Following drug addition, the plates are incubated for an additional 48 h at 37° C., 5% CO2, 95% air, and 100% relative humidity. […] Bound stain is subsequently solubilized with 10 mM trizma base, and the absorbance is read on an automated plate reader at a wavelength of 515 nm. […] Using the seven absorbance measurements [time zero, (Tz), control growth, (C), and test growth in the presence of drug at the five concentration levels (Ti)], the percentage growth is calculated at each of the drug concentrations levels. Percentage growth inhibition is calculated as: [(Ti-Tz)/(C-Tz)]×100 for concentrations for which Ti>/=Tz [(Ti-Tz)/Tz]×100 for concentrations for which Ti<Tz.
Three dose response parameters are calculated for each experimental agent. […]

Data set [2] has as its system human MV411 human acute myelogenous leukemia (AML) xenograft. The class given is in vivo, SCID mice. As to conditions: various concentrations; scid mouse, MV411 cells. The method, then: The objective of the first study was to evaluate antitumor activities of the novel multiple-kinase inhibitor NTW-3475 against human MV411 human acute myelogenous leukemia (AML) xenograft model in female SCID mice.
Four or six animals were randomly assigned to each study group. Each animal was injected subcutaneously in the left and right flank area with 0.1 ml of 1.0×10^8 MV411 cells per mL
Each test or control animal was placed on a 5-day on, two-day off for two cycles of vehicle negative control or 25, 50 mg/kg of NTW-3475. Tumor growth was measured with a digital hand held caliper twice weekly (once tumor emerges) prior to the first dosing and then two to three times weekly until euthanized. Animals were weighed prior to tumor cell injection, prior to dosing, two to three times weekly with tumor growth measurements, and prior to euthanasia.
FIGS. 27-32 depict the results of various concentrations of NTW-3456 on tumor growth in scid mouse/xenograft model of AML using MV411 cells. […] This invention is characterized as it is here was a correlation between the inhibition of the pFLT3 kinase and growth control.

Data set [3] deals with human K562 chronic myelogenous leukemia (CML) xenograft. Put plainly: K562 CML xenograft model. The data set is classed as in vivo, SCID mice. As to conditions: various concentrations; scid mouse, K562 cells. The procedure: The objective of the second study was to evaluate antitumor activities of novel multiple-kinase inhibitor NTW-3475 in human K562 chronic myelogenous leukemia (CML) xenograft model in female SCID mice.
Four to six animals were randomly assigned to study groups. Each animal was weighed, and then injected subcutaneously in the left and right flank area with 0.1 ml of 8.0×10^7 K562 cells per mL.
Each test or control animal was on a 5-day on, two-day off for two cycles treatment schedule. Tumor growth was measured with a digital hand held caliper twice weekly (once tumor emerges) prior to the first dosing and then two to three times weekly until euthanized. Animals were weighed prior to tumor cell injection, prior to dosing, two to three times weekly with tumor growth measurements, and prior to euthanasia.
FIGS. 34 and 35 depict the results of various concentrations of NTW-3456 on a scid mouse/xenograft model of CML using K562 cells.

Data set [4] concerns human MIAPaCa-2 pancreatic carcinoma xenograft. Put plainly: MIAPaCa-2 pancreatic carcinoma xenograft. The data set is classed as in vivo, athymic nude-Faxn1 mice. The method, then:
The objective of the third study was to evaluate antitumor activities of novel multiple-kinase inhibitor NTW-3475 in human MIAPaCa-2 pancreatic carcinoma xenograft in athymic nude-Faxn1 mice.
Four animals were randomly assigned to study groups. Each animal was weighed, and then injected subcutaneously in the left and right flank area with 0.1 ml of 5.0×10^7 MIAPaCa-2 cells per mL.
Each test or control animal was on a 5-day on, two-day off for two cycles treatment schedule with negative control vehicle, positive control Abraxane at 20 mg/kg or 25, 50 mg/kg of NTW-3475. Tumor growth was measured with a digital hand held caliper twice weekly (once tumor emerges) prior to the first dosing and then two to three times weekly until euthanized.
FIGS. 42-44 depict the results of various concentrations of NTW-3456 on a nude mouse/xenograft the MIAPaCa-2 model of pancreatic carcinoma.
FIGS. 45 and 46 depict the results of various concentrations of NTW-3456, with or without Abraxane on a MiaPaCa-2 model of pancreatic carcinoma.

Data set [5] has as its system TT human Thyroid carcinoma xenograft. Put plainly: TT thyroid carcinoma xenograft. The class given is in vivo, nude mouse. As to conditions: various concentrations; nude mouse, TT cell model. The source says: (§1) This example assesses NTW-3475's anti-tumor activity using a scid mouse xenograft models for leukemias and nude mouse xenograft models of endometrial, pancreatic and thyroid carcinomas. NTW-3475 combination therapy was also studied in murine xenografts.
FIGS. 36-38 depict the results of various concentrations of NTW-3456 on a nude mouse/xenograft the TT cell model of thyroid carcinoma.

Data set [6] concerns AN3 human endometrial carcinoma carcinoma xenograft. Put plainly: AN3 endometrial carcinoma xenograft. As to conditions: various concentrations; AN3 nude mouse model. The class given is in vivo, nude mouse.
Excerpt: as §1
FIGS. 39-41 depict the results of various concentrations of NTW-3456 on the AN3 nude mouse/xenograft model of endometrial carcinoma.

The next data set deals with abl T315I mutant (Homo sapiens, UniProt P00519, T315I). Put plainly: kinase activity in abl mutants. The class given is biochemical. The source says:
The first study was designed to assess the effect of NTW-3456 on kinase activity. Activity of NTW-3456 for a wide range of kinases and is shown FIGS. 22-24, including mutant kinases thought to play a large role in neoplastic transformation (FIGS. 23 and 24). In addition, NTW-3456 inhibited kinase activity in abl mutants for which no prior inhibitors have been FDA approved. In particular, NTW-3456 inhibits the 2 T315I mutant for which no kinase inhibitor had been known prior to NTW-3456.

Data set [7] relates to FLT3 phosphorylation (pFLT3) of MV4-11 tumors. Put plainly: FLT3 phosphorylation in MV4-11 tumor xenografts. The data set is classed as in vivo, SCID mice. As to conditions: 24 hour after single oral 50 mg/kg. The procedure: (§2) The mice carrying the established MV4-11 tumor xenografts (tumor volume around 150 mm^3) were given an oral dose of 50 mg/kg NTW-3456. At 0, 1, 2, 8, 16, 24 hours after dosing, three were euthanized. The blood samples were collected and plasma was prepared with centrifuge for LCMS assay. And the tumors were harvested, homogenized in lysis buffer, immunoprecipitated with anti-FLT3 antibody FIG. 33.
(§3) The curve (solid dot) is the plot of plasma concentration-time profiles of NTW-3456 after oral administration of 50 mg/kg.

Data set [8] in a line: plasma concentration after oral administration (LCMS). The class given is in vivo, SCID mice. As to conditions: 24 hour after single oral 50 mg/kg; mice with MV4-11 tumor xenografts. The method, then: as §2, §3
For data set [9], the system named is Pane-1 model of pancreatic carcinoma. Put plainly: Panc-1 pancreatic carcinoma xenograft. The data set is classed as in vivo. As to conditions: with or without Abraxane. The text has this: FIGS. 48 and 49 depict the results of various concentrations of NTW-3456, with or without Abraxane on a Pane-1 model of pancreatic carcinoma.

Consider `Cc1cc2c(F)c(Oc3nc(Nc4cc(C5CC5)[nH]n4)cc(N4CCN(C)CC4)n3)ccc2n1C` [Example 122], for which the “% Inhibition @1 μM Abl” value with abl kinase came to 109%.
With `Cc1cc2c(F)c(Oc3nc(Nc4cc(C5CC5)[nH]n4)cc(N4CCOCC4)n3)ccc2n1C` [Example 123], the “% Inhibition @1 μM Abl” value in the data set on abl kinase is 114%.
Turning to `C/C=C/c1cc(Nc2cc(N3CCN(C)CC3)nc(Oc3cc(F)c4[nH]c(C)cc4c3F)n2)n[nH]1` [NTW-3456], the antiproliferative activity result in [1] is “seen against AML, CML, thyroid, enodmetrial, gastric, breast, and some pancreatic carcinoma cell lines”. For the same compound, the anti-tumor activity entry in data set [2] is given as “significant anti-tumor activity, especially at higher doses”; in data set [3], “significant anti-tumor activity, especially at higher doses”; in [4] (various concentrations, single agent, nude mouse), “some anti-tumor activity”; in data set [4] (with or without Abraxane) it was “significant anti-tumor activity, especially when used in combination with Abraxane”; in data set [5], “significant anti-tumor activity, especially at higher doses”; in data set [6] it was “significant anti-tumor activity, especially at higher doses”. Moreover, in [9], the anti-tumor activity entry is reported as “significant anti-tumor activity, especially when used in combination with Abraxane”. The “inhibition of kinase activity” value at abl T315I mutant is “inhibits”. Moreover, the “inhibition of FLT3 phosphorylation of MV4-11 tumor” value in data set [7] is on record as “more than 60%”. Also, the plasma concentration in data set [8] was 7 nM.

For the origin of these results see patent US9458137B2, “Substituted indol-5-ol derivatives and their therapeutical applications” (NantBioScience, Inc., priority 2012, dated 2016).
